The target in data set [1] is T1, human D2l receptors (Homo sapiens, UniProt P14416).
T1 construct: expressed in transfected cells; host or cells: CHO (CHO-hD2l cells), membrane preparation
Put plainly: Incorporation of GTPgammaS^35 in CHO-hD2l membranes. Type of data set: biochemical. The protocol:
Membranes were stored at −80° C. at a concentration of 1 mg protein/ml buffer.
Dopamine-stimulated GTPgammaS^35 incorporation was determined using the following procedure: in a buffer containing 20 mM HEPES, 5 mM Mg Cl2, 100 mM NaCl, at pH 7.5, membranes ([…]) were incubated with vehicle, drugs and 3 μM GDP for 30 min at 30° C., total volume was 1.1 ml. […] The reaction was stopped by filtering the samples with a Brandel harvester on Whatmann GF/B filters. Filters were placed in liquid scintillation vials containing 10 ml of BCS scintillation fluid and counted the next day. All samples were run in triplicate.

For data set [2], the system named is rats. Put plainly: Preliminary experiment: rats in large illuminated arenas during daytime. In kind it is in vivo. An excerpt: As to the issues of illumination and daylight cycle, behavioural inhibition has been observed in ultraviolet (Rung et al., 2005b) or infrared light (current study) during the dark hours of the rats' diurnal rhythm. Based on how the light is perceived by humans, we presume that the ultraviolet and infrared light used in these studies is perceived by the rats as dim light and darkness respectively.

Data set [3] relates to active rats. Nature of the data set: Video tracking: motor activity (velocity) of active rats. In kind it is in vivo, Sprague-Dawley rats. The settings on record: i.p., 30 min prior to 30 min tracking. The method, then: (§1) Prior to testing, the rats were housed for approximately 1 week with free access to food and water, in groups of four or five in Macrolon type III cages in the animal facility of the Sahlgrenska Academy at Göteborg University. The experiments were approved by the animal ethics committee in Göteborg.
(§2) OSU6162, ACR16, apomorphine and (−)-3-PPP were dissolved in 0.9% saline. A few grains of ascorbic acid were added to apomorphine solutions to prevent oxidation of the drug. Haloperidol and amisulpride were dissolved in a minimum amount of acetic acid and diluted with 5.5% glucose. The solutions were adjusted to pH 5-7 with sodium bicarbonate. Aripiprazole was dissolved in a minimum amount of heated acetic acid, diluted in warm 5.5% glucose and adjusted to pH 4-5. All drugs were administered intraperitoneally (i.p.) or subcutaneously (s.c.) in volumes of 5 ml/kg. Control treatments consisted of the appropriate vehicle administered in accordance with the drug treatment at issue.
(§3) The rats were housed in reverse daylight cycle and all handling of the animals was performed in dim light. Apomorphine was administered s.c. 5 minutes prior to testing, while all other drugs were injected i.p. or s.c. 30 minutes before testing. Single rats were introduced into rectangular arenas (l/w/h: 150×100×40 cm) illuminated indirectly by one infrared lamp (Neocom, South Korea). The rats' movements were recorded to digital (MPEG2) video files using an IR sensitive video camera (Panasonic WV-CPR480, lens: Panasonic LA-408C3) connected to a PC equipped with a MPEG-encoder (MVR1000^SX, Canopus Co.). […] Behavioural variables were extracted from the tracks in MatLab (The MathWorks, Inc., USA) with functions developed in this laboratory. Mean velocity was used to measure motor activity. Prior to calculation of velocity the tracks were subjected to a running mean filter, i.e. each sample was replaced by the mean of fifteen consecutive samples.
(§4) In several cases data from two or more experiments have been pooled. […] Confirmed outlying values (N=0-3 per experiment) were excluded from statistical analyses and graphical presentations. Data from the video tracking setting was analyzed with univariate general linear model (GLM). Following GLM analysis, comparisons versus the appropriate control groups were performed with Dunnet's post hoc test. […] Data obtained from activity boxes was analyzed with Kruskal-Wallis one-way analysis of variance by ranks. […] All statistical tests were two sided and p<0.05 was considered statistically significant.

For data set [4], the system named is mice pretreated with reserpine and alpha-methylpara-tyrosine. Nature of the data set: Mouse model of Parkinsonism (reserpine and alpha-methyl-para-tyrosine pretreated mice). In kind it is in vivo, NMRI mice. The method, then: Animals were pretreated with reserpine (10 mg/kg i.p.) and alpha-methylpara-tyrosine (500 mg/kg i.p.) 18 and 4 hours before the experiment, respectively, and were then treated with various i.p. doses of OSU6162, expressed in […], or saline (“ctr”). Immediately following injection the animals were placed in individual cages and video-taped from above for 60 min. Shown are the distances moved, means and S.E.M. N=5-6 per treatment group. Statistics: *P<0.05, **p<0.01, as compared with the controls.
In these experiments we used male NMRI mice weighting 25-30 g at the time of testing. The mice were pretreated with reserpine, 10 mg/kg i.p., 18 hours, and alpha-methyl-para-tyrosine HCl, 500 mg/kg i.p. 2 hours, respectively, before the experiment.
The actual experiment was started by injecting either OSU6162 in doses of 5, 25 or 125 μmol/kg i.p.or placebo (a physiological saline solution). Each dosage group consisted of 5-6 mice. Immediately after injection the mice were placed in individual cages and video taped from above for 60 min. Various aspects of motility were analysed from the video tapes.
Statistical calculations were performed with the non parametric Mann-Whitney U-test, and asterisks in the graph indicate significant differences compared to control group (*p<0.05; **p<0.01).

For data set [5], the target named is dopamine D2 receptors (Homo sapiens, UniProt P14416). The following applies: in-vitro binding, Sonesson et al. 1994; cited from earlier work.
dopamine D2 receptors, sequence (P14416 whole entry): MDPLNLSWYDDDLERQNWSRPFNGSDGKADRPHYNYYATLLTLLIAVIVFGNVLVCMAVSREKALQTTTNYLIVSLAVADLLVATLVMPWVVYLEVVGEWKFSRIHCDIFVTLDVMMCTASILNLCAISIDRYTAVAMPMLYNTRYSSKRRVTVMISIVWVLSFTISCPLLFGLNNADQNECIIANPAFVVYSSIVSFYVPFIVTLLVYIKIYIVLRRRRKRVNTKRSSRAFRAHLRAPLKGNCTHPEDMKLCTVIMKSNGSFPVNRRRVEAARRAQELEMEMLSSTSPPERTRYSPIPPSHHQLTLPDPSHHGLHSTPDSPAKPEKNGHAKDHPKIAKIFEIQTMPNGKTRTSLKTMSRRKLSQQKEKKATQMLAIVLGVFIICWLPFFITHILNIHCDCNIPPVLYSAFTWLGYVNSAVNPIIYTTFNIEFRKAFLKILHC
For data set [6] the following is noted: clinical dosages of at least 25 mg per day; cited from earlier work.
Data set [7] concerns amphetamine-induced hyperactivity in rats. The settings on record: Natesan et al., 2006; cited from earlier work.
For data set [8], the system named is apomorphine induced hypomotility in rats. Put plainly: Apomorphine induced hypomotility in rats (video tracking). Type of data set: in vivo, Sprague-Dawley rats. The settings on record: apomorphine 0.16 μmol/kg s.c. The protocol: FIG. 7. […] Test drugs were administered 30 minutes prior to registration. Motor activity was measured for 30 minutes as velocity in the video tracking setting. Statistical comparisons were made versus the apomorphine group with univariate general linear model, followed by Dunnet's post hoc test. *p<0.05; *p<0.01; ***p<0.001. FIG. 8.
as §3, §4

Data set [9] deals with habituated rats. Nature of the data set: Motor activity of habituated rats in activity boxes. Type of data set: in vivo, Sprague-Dawley rats. The settings on record: s.c. The method, then:
as §1, §2
Rats were housed in a normal daylight cycle and testing was performed during daytime. Animals were introduced into sound attenuated, illuminated activity boxes (1/w/h: 40×40×20 cm) and were allowed to habituate in the new environment for 65 minutes. During the following 5 minutes test drugs were injected s.c., after which the rats were returned to the boxes for another 60 minutes. Five by five rows of photocell beams at floor level allowed a computer based-system to register horizontal activity. Motor activity is presented as accumulated number of unrepeated beam breaks, i.e. several consecutive breakings of one beam is counted as one beam break. The software was set to register behaviour from the rat's first introduction into the arena until it was finally removed from the box, i.e. for 130 minutes. Activity is presented separately for t=0-30 min and t=30-60 min after injection.
as §4

T1 sequence (P14416 whole entry): as above

As for `CCCN1CCC[C@@H](c2cccc(S(C)(=O)=O)c2)C1` [(−)-OSU6162, S-(−)-3-[3-methylsulfonylphenyl]-1-propylpiperidine], in [1] (absence of dopamine, 100 to 10,000 nM (−)OSU6162), the “increase of the incorporation of GTPgammaS^35” value lay in the range of 8 to 11%. In addition, the “effect on GTPgammaS^35 incorporation” value in data set [1] (dopamine 10 to 100 nM, (−)-OSU6162 10 to 100 nM) is “caused an increased incorporation of GTPgammaS^35”; in data set [1] (dopamine 10 to 100 nM, (−)-OSU6162 1,000 to 10,000 nM) it was “this increase was no longer seen”; in [1] (dopamine 1,000 and 10,000 nM, varied (−)-OSU6162 levels), “similar, though flatter activity curves”. Moreover, the behavioural response entry in [2] (daytime, large illuminated arenas, not habituated) is given as “behavioural inhibition similar to that observed in darkness”; in data set [2] (rats habituated to large illuminated arenas), “did not respond with any change in activity”. In data set [3], the “motor activity (velocity)” value is “dose-dependent and statistically significant reduction of motor activity”. Further, the “motility (distance moved, 60 min)” value in [4] (OSU6162 5 μmol/kg i.p.) is listed as “showed only minimal signs of motility”; in data set [4] (OSU6162 two higher doses (25, 125 μmol/kg i.p.)), “significant, dose dependent increase in motility”. Also, the Ki entry in data set [5] is reported as “in the micromolar region”. For the same compound, the cardiac adverse effects entry in data set [6] is “QTc values higher than normal, cardiac arrhythmia, or heart rhythm abnormalities, such as torsades de pointes”. In addition, in [7], the “effect on amphetamine-induced hyperactivity” value was “reverse amphetamine-induced hyperactivity”. Besides, the “effect on apomorphine-induced hypomotility” value in data set [8] (OSU6162 120 μmol/kg i.p.) was “seemed to cause a marked drop in motor activity”; in data set [8] (test drug i.p. 30 min prior, dose range per drug) it was “modest but apparently dose dependent reversal of apomorphineinduced hypomotility up to a dose of 60 μmol/kg”. For the same compound, the “dose at which a significant effect on motor activity shows up” value in data set [9] (later experiment with lower doses 6.25 and 12.5 μmol/kg) came to 12.5 µmol/kg. In addition, the “motor activity (accumulated unrepeated beam breaks)” value was “marked locomotor activation” in data set [9] (t=0-30 min after injection) and “the three highest doses significantly stimulated locomotion” in [9] (t=30-60 min after injection).

The values are drawn from US20100197712A1, “USE OF DOPAMINE STABILIZERS” (priority 2007, published 2010).
